Laboratory results: US20160316790A1, “BETA-HINOKITIOL DERIVATIVES AND APPLICATIONS THEREOF IN PREPARATION OF ANIMAL ANTIBACTERIAL AGENTS AND ANTIBACTERIAL GROWTH PROMOTERS USED IN FEED” (GUANGZHOU INSIGHTER BIOTECHNOLOGY CO., LTD., priority 2013, published 2016)
Converted amounts (≈) assume the structure as drawn. “And” between values parts separate entries of the source, which are not always exact repeats. Identical values can stand only once. Like-named read-outs stand apart in the source and are kept apart here.

Experiments:
[1] = Effect of β-hinokitiol derivatives on diarrhea of weaned pigs; format: in vivo; conditions: weaned pigs, 10 days
Source text: 80 25-day-old weaned pigs were randomly divided into eight groups according to table 7, 10 pigs in each group. […] During the testing, the pigs ate food and drank water freely with temperature preservation. The test lasted for 10 days.

[2] = test system: clostridium perfringens; assay: microbe, parasite or virus in culture; format: cell-based
[3] = test system: salmonellas; assay: Minimum inhibitory concentration in vitro, doubling dilutions; format: cell-based
[4] = test system: escherichia coli; assay: as above; format: cell-based
[5] = test system: haemophilus parasuis; assay: as above; format: cell-based; conditions: Glaesserella parasuis
[6] = test system: riemerella anatipestifer; assay: as above; format: cell-based
[7] = test system: vibrio; assay: as above; format: cell-based
[8] = test system: streptococcus; assay: as above; format: cell-based
[9] = test system: riemerella anatipestifer; assay: Protection effect against attacking and infection of riemerella anatipestifer; conditions: ducks, 5 × 10^7 CFU/bird, 10 mg/kg weight intramuscular, 7 days
[10] = test system: staphylococcus aureus; assay: Minimum inhibitory concentration in vitro, doubling dilutions; format: cell-based
[11] = read-out: Minimum inhibitory concentration (MIC), Clostridium JM1210B
[12] = read-out: Minimum inhibitory concentration (MIC), Clostridium JM1212A
[13] = strain FS1303B, read-out: Minimum inhibitory concentration (MIC), Salmonellas FS1303B
[14] = strain GD1303-3, read-out: Minimum inhibitory concentration (MIC), Salmonellas GD1303-3
[15] = read-out: Minimum inhibitory concentration (MIC), Eserichia coli HZ1308-1
[16] = read-out: Minimum inhibitory concentration (MIC), Eserichia coli SS1107A
[17] = read-out: Minimum inhibitory concentration (MIC), Haemophilus parasuis S5A
[18] = strain 2-3A, read-out: Minimum inhibitory concentration (MIC), Haemophilus parasuis 2-3A
[19] = read-out: Minimum inhibitory concentration (MIC), Riemerella anatipestifer SCAU03
[20] = strain WS, read-out: Minimum inhibitory concentration (MIC), Riemerella anatipestifer WS
[21] = read-out: Minimum inhibitory concentration (MIC), Vibrio VP3
[22] = read-out: Minimum inhibitory concentration (MIC), Vibrio VP5
[23] = strain KP1307-1, read-out: Minimum inhibitory concentration (MIC), Streptococcus KP1307-1
[24] = strain TS1205-2, read-out: Minimum inhibitory concentration (MIC), Streptococcus TS1205-2
[25] = strain SCAU03, read-out: Minimum inhibitory concentration (MIC), Riemerella anatipestifer SCAU03
[26] = read-out: Minimum inhibitory concentration (MIC), Haemophilus parasuis 2-3A

| Compound | MIC [2, 11] [µg/mL] | MIC [2, 12] [µg/mL] | MIC [3, 13] [µg/mL] | MIC [3, 14] [µg/mL] | MIC [4, 15] [µg/mL] | MIC [4, 16] [µg/mL] | MIC [5, 17] [µg/mL] | MIC [5, 18] [µg/mL] | MIC [6, 19] [µg/mL] | MIC [6, 20] [µg/mL] | MIC [7, 21] [µg/mL] | MIC [7, 22] [µg/mL] | MIC [8, 23] [µg/mL] | MIC [8, 24] [µg/mL] | further results |
| --- | --- | --- | --- | --- | --- | --- | --- | --- | --- | --- | --- | --- | --- | --- | --- |
| Colistin sulfate [reference compound] |  |  |  |  |  |  |  |  |  |  |  |  |  |  | Average daily diarrhea rate ([1]; 60 ppm in diet): 30% and 33% |
| O=c1cccc(Cc2ccccc2)cc1O [IST_009_004, 4-benzyl-2-hydroxycyclohepta-2,4,6-trienone] | 12.5 (≈ 58.9 µM) | 12.5 (≈ 58.9 µM) | 25 (≈ 118 µM) | 25 (≈ 118 µM) | 12.5 (≈ 58.9 µM) | 25 (≈ 118 µM) | 0.2 (≈ 0.942 µM) | 0.78 (≈ 3.67 µM) | 12.5 (≈ 58.9 µM) | 6.25 (≈ 29.4 µM) | 50 (≈ 236 µM) | 50 (≈ 236 µM) | 6.25 (≈ 29.4 µM) | 50 (≈ 236 µM) |  |
| CO/N=C(\C(=O)N[C@@H]1C(=O)N2C(C(=O)O)=C(COC(C)=O)CS[C@H]12)c1csc(N)n1 [Cefotaxime, reference compound] |  |  |  |  |  |  |  |  |  |  |  |  |  |  | Death rate [9]: 0%; Morbidity [9]: 25% |
| O=c1cccc(Cc2ccc(F)cc2)cc1O [IST_009_028, 4-(4-fluorobenzyl)-2-hydroxycyclohepta-2,4,6-trienone] |  |  |  |  |  |  |  |  |  |  | 100 (≈ 434 µM) | 100 (≈ 434 µM) | 25 (≈ 109 µM) | 25 (≈ 109 µM) |  |
| CCCCc1cccc(=O)c(O)c1 [IST_009_019, 4-butyl-2-hydroxycyclohepta-2,4,6-trienone] | 12.5 (≈ 70.1 µM) | 6.25 (≈ 35.1 µM) | 25 (≈ 140 µM) | 25 (≈ 140 µM) | 25 (≈ 140 µM) | 25 (≈ 140 µM) | 0.2 (≈ 1.12 µM) | 0.39 (≈ 2.19 µM) |  |  | 50 (≈ 281 µM) | 50 (≈ 281 µM) | > 100 | 25 (≈ 140 µM) |  |
| CC(C)c1cccc(=O)c(O)c1 [IST_001_002, 2-hydroxy-4-isopropyl-1-cycloheptatrienone, reference compound] | 6.25 (≈ 38.1 µM) | 12.5 (≈ 76.1 µM) | 25 (≈ 152 µM) | 25 (≈ 152 µM) | 25 (≈ 152 µM) | 25 (≈ 152 µM) |  | 0.78 (≈ 4.75 µM) |  |  | 25 (≈ 152 µM) | 25 (≈ 152 µM) | 50 (≈ 304 µM) | 50 (≈ 304 µM) | MIC ([10]; strain PNB14, read-out: Minimum inhibitory concentration (MIC), Staphylococcus aureus PNB14): 25 µg/mL (≈ 152 µM); MIC ([10]; strain SA10, read-out: Minimum inhibitory concentration (MIC), Staphylococcus aureus SA10): 25 µg/mL (≈ 152 µM); MIC ([6]; read-out: Minimum inhibitory concentration (MIC), Riemerella anatipestifer WS): 6.25 µg/mL (≈ 38.1 µM); MIC [6, 25]: 25 µg/mL (≈ 152 µM); Average daily diarrhea rate ([1]; 30 ppm in diet): 35% and 32% |
| O=c1cccc(CCCF)cc1O [IST_009_031, 4-(3-fluoropropyl)-2-hydroxycyclohepta-2,4,6-trienone] | 6.25 (≈ 34.3 µM) | 6.25 (≈ 34.3 µM) | 50 (≈ 274 µM) | 50 (≈ 274 µM) | 25 (≈ 137 µM) | 100 (≈ 549 µM) | 3.13 (≈ 17.2 µM) |  |  |  |  |  |  |  | MIC [5, 26]: 6.25 µg/mL (≈ 34.3 µM) |
| O=c1cccc(Cc2ccc(Cl)cc2)cc1O [IST_009_025, 4-(4-chlorobenzyl)-2-hydroxycyclohepta-2,4,6-trienone] |  |  |  |  |  |  |  |  |  |  | > 100 | > 100 | 25 (≈ 101 µM) | 25 (≈ 101 µM) |  |
| CCc1cccc(=O)c(O)c1 [IST_009_018, 4-ethyl-2-hydroxycyclohepta-2,4,6-trienone] | 3.13 (≈ 20.8 µM) | 3.13 (≈ 20.8 µM) | 12.5 (≈ 83.2 µM) | 25 (≈ 166 µM) | 25 (≈ 166 µM) | 50 (≈ 333 µM) | 1.56 (≈ 10.4 µM) |  | 12.5 (≈ 83.2 µM) | 6.25 (≈ 41.6 µM) | 25 (≈ 166 µM) | 25 (≈ 166 µM) |  | > 100 | MIC [5, 26]: 3.13 µg/mL (≈ 20.8 µM); MIC ([8]; read-out: Minimum inhibitory concentration (MIC), Streptococcus KP1307-1): 12.5 µg/mL (≈ 83.2 µM) |
| CCCCCCCCc1cccc(=O)c(O)c1 [IST_009_030, 2-hydroxy-4-octylcyclohepta-2,4,6-trienone] | 25 (≈ 107 µM) | 12.5 (≈ 53.3 µM) | 25 (≈ 107 µM) | > 100 | 25 (≈ 107 µM) | > 100 | 0.39 (≈ 1.66 µM) | 6.25 (≈ 26.7 µM) | 12.5 (≈ 53.3 µM) | 3.13 (≈ 13.4 µM) | > 100 | > 100 | 25 (≈ 107 µM) | 25 (≈ 107 µM) | MIC ([10]; read-out: Minimum inhibitory concentration (MIC), Staphylococcus aureus PNB14): 12.5 µg/mL (≈ 53.3 µM); MIC ([10]; read-out: Minimum inhibitory concentration (MIC), Staphylococcus aureus SA10): 12.5 µg/mL (≈ 53.3 µM) |
| CCCCCCCCCCCCCCc1cccc(=O)c(O)c1 [IST_009_033, 2-hydroxy-4-tetradecylcyclohepta-2,4,6-trienone] | 50 (≈ 157 µM) | 50 (≈ 157 µM) | > 100 | > 100 | > 100 | > 100 |  | 50 (≈ 157 µM) |  | 25 (≈ 78.5 µM) | > 100 | > 100 | > 100 | > 100 | MIC [6, 25]: 100 µg/mL (≈ 314 µM) |
| CCC(C)c1cccc(=O)c(O)c1 (stereo not drawn) [IST_009_008, 4-(sec-butyl)-2-hydroxycyclohepta-2,4,6-trienone] | 12.5 (≈ 70.1 µM) | 12.5 (≈ 70.1 µM) | 25 (≈ 140 µM) | 25 (≈ 140 µM) | 25 (≈ 140 µM) | 25 (≈ 140 µM) |  | 0.39 (≈ 2.19 µM) | 12.5 (≈ 70.1 µM) | 6.25 (≈ 35.1 µM) | 50 (≈ 281 µM) | 25 (≈ 140 µM) | 50 (≈ 281 µM) | 50 (≈ 281 µM) |  |
